These results are taken from patent US20110319626A1 (BRADFORD PHARMA LIMITED, priority 2009, published 2011).

The test concerns the target T1, HMG-CoA reductase (Homo sapiens, UniProt P04035).
T1 construct: oxidation of NADPH by the catalytic subunit of HMGR in the presence of the substrate HMG-CoA; purchased Sigma-Aldrich CS1090 (kit); H8789 (HMG-CoA reductase)
T1 sequence (P04035 340-888 limits assumed): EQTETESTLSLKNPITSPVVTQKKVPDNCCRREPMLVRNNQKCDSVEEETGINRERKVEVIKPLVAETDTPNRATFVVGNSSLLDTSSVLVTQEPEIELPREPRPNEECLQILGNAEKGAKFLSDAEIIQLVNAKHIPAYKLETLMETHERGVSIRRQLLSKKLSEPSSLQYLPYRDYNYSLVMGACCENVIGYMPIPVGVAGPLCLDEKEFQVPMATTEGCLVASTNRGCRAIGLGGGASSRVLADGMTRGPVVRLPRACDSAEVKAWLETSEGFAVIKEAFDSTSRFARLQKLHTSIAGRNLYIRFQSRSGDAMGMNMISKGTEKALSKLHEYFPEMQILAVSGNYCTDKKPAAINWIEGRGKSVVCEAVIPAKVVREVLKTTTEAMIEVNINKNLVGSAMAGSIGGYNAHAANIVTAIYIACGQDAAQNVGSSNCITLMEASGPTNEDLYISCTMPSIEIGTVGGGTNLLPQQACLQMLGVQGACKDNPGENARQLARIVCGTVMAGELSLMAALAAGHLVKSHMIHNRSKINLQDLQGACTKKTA
The test can be described thus: HMG-CoA Reductase assay kit (spectrophotometric NADPH absorbance at 340 nm). It is filed as biochemical. To be noted: NADPH and HMG-CoA both 200 μM, inhibitor concentrations varied from 0 nM to 50 nM, 37° C. Here is the method: All assays were carried out in a reaction buffer containing […] KxPO4 at pH 7.2, 1 mM EDTA, 500 mM KCl and 1 mg/ml BSA. The concentrations of NADPH and HMG-CoA were both 200 μM. […] Absorbance readings were then taken every 20 seconds for 600 seconds. […] After these were identified, assays were carried out varying their concentrations from 0 nM to 50 nM allowing IC50 values to be calculated.
This is illustrated in the following reaction scheme:
HMG-CoA+2NADPH+2H^+→mevalonate+2NADP^++CoA-SH
Add a buffer to all samples. • b. […] Add the reconstituted NADPH to all samples. • d. Add Substrate Solution (HMG-CoA) to all samples. • e. […] Mix the samples thoroughly.
3. The kinetics programme was started immediately.

Where only a bound is given, the exact number is not on record here.

Consider `CC(C)OC1C[C@H](OCc2ccccc2)C[C@@H](CCn2c(-c3ccc(F)cc3)c(-c3ccccc3)c(C(=O)Nc3ccccc3)c2C(C)C)O1` (some centres unmarked), for which the IC50 amounted to 4 nM.
On to `CC(C)c1c(C(=O)Nc2ccccc2)c(-c2ccccc2)c(-c2ccc(F)cc2)n1CC[C@@H]1C[C@@H](O)CC(=O)O1`, for which the IC50 amounted to 3 nM.
The compound `CC(C)c1c(C(=O)Nc2ccccc2)c(-c2ccccc2)c(-c2ccc(F)cc2)n1CC[C@@H]1C[C@@H](O)CC(OC2CCCCC2)O1` (some centres unmarked) had a half-maximal inhibitory concentration (IC50) below 1 nM.
The same measure for `COC1C[C@H](OC(=O)c2cccnc2)C[C@@H](CCn2c(-c3ccc(F)cc3)c(-c3ccccc3)c(C(=O)Nc3ccccc3)c2C(C)C)O1` (some centres unmarked): below 1 nM; for `CC(C)c1c(C(=O)Nc2ccccc2)c(-c2ccccc2)c(-c2ccc(F)cc2)n1CC[C@@H]1C[C@@H](OCc2ccccc2)CC(OC(C)(C)C)O1` (some centres unmarked): 3 nM; for `CCCOC1C[C@H](O)C[C@@H](CCn2c(-c3ccc(F)cc3)c(-c3ccccc3)c(C(=O)Nc3ccccc3)c2C(C)C)O1` (some centres unmarked): below 1 nM.
Next, `C=CCOC1C[C@H](OCc2ccccc2)C[C@@H](CCn2c(-c3ccc(F)cc3)c(-c3ccccc3)c(C(=O)Nc3ccccc3)c2C(C)C)O1` (some centres unmarked): 1 nM.
The same measure for `COc1ccc(OC2C[C@H](O)C[C@@H](CCn3c(-c4ccc(F)cc4)c(-c4ccccc4)c(C(=O)Nc4ccccc4)c3C(C)C)O2)c(OC)c1` (some centres unmarked): below 1 nM.
